In patent US9855268B2, “Triazolo[4,5-d]pyrimidine derivatives” (Merck Patent GmbH, priority 2013, dated 2018):

Legend:
GCN2 [1] = target: T1, GCN2 (Homo sapiens, UniProt Q9P2K8); experiment: Cellular assay of GCN2 activity (phospho-eIF2alpha immunocytochemistry after tryptophanol); type: cell-based; parameters: endogenous in cells; host or cells: U2OS; details: Human U2OS cells, 2 h compound, 600 μM tryptophanol 30 min
In short: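 Readout in human U2OS cells: compound pretreatment 2 h, then tryptophanol (600 μM final) for 30 min to trigger GCN2 signalling. Fixed, permeabilised cells quantified by immunocytochemistry for phosphorylation, normalised to DMSO controls as % effect; IC50 from concentration-response.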
Target sequence in this assay (Q9P2K8 whole entry): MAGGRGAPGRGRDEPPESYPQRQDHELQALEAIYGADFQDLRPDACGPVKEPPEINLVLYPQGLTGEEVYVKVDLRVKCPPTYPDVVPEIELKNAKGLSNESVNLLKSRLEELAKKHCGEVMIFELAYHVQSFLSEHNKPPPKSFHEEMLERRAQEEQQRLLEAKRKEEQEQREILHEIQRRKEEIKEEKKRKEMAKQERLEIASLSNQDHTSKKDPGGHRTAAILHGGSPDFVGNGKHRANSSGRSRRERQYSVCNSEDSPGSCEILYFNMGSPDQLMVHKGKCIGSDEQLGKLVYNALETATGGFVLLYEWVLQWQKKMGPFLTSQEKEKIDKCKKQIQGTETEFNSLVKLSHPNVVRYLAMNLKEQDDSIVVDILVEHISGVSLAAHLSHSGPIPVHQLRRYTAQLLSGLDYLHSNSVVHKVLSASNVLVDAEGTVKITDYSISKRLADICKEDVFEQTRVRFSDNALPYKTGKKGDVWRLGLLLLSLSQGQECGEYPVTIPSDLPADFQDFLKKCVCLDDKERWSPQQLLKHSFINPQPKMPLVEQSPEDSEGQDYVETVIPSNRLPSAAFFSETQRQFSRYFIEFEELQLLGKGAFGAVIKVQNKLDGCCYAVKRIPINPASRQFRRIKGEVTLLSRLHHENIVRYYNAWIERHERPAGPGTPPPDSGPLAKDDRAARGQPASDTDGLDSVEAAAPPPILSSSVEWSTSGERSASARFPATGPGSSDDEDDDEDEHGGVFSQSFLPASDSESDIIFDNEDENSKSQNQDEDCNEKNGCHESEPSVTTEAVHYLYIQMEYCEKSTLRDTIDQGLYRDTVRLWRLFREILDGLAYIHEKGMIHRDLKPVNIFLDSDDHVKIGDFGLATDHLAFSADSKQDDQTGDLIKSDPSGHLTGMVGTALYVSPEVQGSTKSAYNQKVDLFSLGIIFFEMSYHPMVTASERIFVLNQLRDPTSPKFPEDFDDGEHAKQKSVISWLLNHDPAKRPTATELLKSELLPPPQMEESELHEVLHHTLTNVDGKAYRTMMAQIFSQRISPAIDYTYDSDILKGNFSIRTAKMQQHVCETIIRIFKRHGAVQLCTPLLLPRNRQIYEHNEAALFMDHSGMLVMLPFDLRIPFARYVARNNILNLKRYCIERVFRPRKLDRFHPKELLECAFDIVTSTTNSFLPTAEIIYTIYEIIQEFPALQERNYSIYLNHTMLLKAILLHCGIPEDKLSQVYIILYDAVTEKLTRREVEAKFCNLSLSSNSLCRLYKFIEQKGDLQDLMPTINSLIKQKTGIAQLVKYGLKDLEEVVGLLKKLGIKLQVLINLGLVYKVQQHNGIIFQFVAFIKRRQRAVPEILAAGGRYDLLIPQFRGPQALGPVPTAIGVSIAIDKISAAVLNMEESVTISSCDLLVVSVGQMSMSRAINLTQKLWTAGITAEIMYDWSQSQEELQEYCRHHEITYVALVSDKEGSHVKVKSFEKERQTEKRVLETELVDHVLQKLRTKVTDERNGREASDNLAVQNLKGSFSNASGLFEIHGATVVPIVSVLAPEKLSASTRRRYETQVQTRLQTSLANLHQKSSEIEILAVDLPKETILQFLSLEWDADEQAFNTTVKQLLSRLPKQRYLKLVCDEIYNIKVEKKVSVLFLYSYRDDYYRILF

GSK3β(h) = GSK3β(h) (Homo sapiens, UniProt P49841); experiment: GSK3β radiometric kinase assay (33P-ATP, phospho GS2 peptide); type: biochemical; details: read-out: IC50 GSK3β (enzyme assay)
Chain of GSK3β(h) (P49841 whole entry): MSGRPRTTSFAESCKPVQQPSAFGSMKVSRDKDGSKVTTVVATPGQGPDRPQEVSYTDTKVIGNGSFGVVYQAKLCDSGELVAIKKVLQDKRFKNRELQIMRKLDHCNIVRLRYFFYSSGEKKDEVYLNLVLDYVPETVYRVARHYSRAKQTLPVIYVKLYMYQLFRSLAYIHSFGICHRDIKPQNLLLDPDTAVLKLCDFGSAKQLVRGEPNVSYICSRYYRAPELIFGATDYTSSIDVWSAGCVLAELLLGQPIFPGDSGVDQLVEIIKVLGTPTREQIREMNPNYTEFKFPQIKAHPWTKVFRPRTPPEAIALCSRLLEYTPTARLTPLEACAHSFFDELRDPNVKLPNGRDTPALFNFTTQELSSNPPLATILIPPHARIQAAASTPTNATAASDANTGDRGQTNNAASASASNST
In short: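 Human GSK3β in 8 mM MOPS pH 7,0, 0,2 mM EDTA, 10 mM Mg-acetate with 20 μM phospho-GS2 peptide; the reaction was started with [γ-33P]MgATP at an unstated level. After 40 min at room temperature it was stopped with phosphoric acid, and the peptide was captured on P30 filtermat for scintillation counting.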

GSK3α(h) = GSK3α(h) (Homo sapiens, UniProt P49840); experiment: GSK3α radiometric kinase assay (33P-ATP, phospho GS2 peptide); type: biochemical; details: read-out: IC50 GSK3α (enzyme assay)
Chain of GSK3α(h) (P49840 whole entry): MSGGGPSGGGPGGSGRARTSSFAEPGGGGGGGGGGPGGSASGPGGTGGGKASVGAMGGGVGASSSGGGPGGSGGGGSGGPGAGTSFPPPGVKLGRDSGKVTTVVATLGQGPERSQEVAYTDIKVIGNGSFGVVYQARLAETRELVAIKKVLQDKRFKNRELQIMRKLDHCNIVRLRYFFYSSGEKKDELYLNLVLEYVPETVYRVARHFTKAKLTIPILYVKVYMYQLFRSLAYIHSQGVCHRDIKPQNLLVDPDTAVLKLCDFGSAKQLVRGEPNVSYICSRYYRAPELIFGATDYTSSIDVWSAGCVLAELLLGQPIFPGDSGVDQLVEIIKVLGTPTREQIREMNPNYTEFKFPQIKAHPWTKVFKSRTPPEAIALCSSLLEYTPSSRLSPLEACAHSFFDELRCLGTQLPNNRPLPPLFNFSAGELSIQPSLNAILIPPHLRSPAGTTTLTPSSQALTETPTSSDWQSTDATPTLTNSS
In short: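 Human GSK3α incubated with 20 μM phospho-GS2 peptide in 8 mM MOPS pH 7,0, 10 mM Mg-acetate and [γ-33P]ATP (concentration as required), started with MgATP. After 40 minutes at room temperature, stopped with phosphoric acid; 33P incorporation measured by filtermat spotting and scintillation counting.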

GCN2 [2] = target: T1, GCN2; experiment: GCN2 enzyme assay (TR-FRET Lanthascreen, GFP-eIF2alpha phosphorylation); type: biochemical; details: 10 μM ATP, 80 nM GFP-eIF2a, 30 nM GCN2
In short: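 Kinase reaction with 10 μM ATP and 80 nM GFP-labelled eIF2alpha substrate at room temperature, stopped with EDTA. Phospho-eIF2alpha detected by TR-FRET between antibody and GFP-substrate, excitation at 340 nm.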
Target sequence in this assay (Q9P2K8 whole entry, species assumed): as the sequence (Q9P2K8 whole entry) above

SMILES	IC50 (GCN2 [1]) [µM]	IC50 (GSK3β(h)) [nM]	IC50 (GSK3α(h)) [nM]	IC50 (GCN2 [2]) [nM]
NC(=O)[C@@H]1CC[C@@H](Nc2ncc3nnn(-c4ccc(N5CCOCC5)c(F)c4)c3n2)C1 [A158, (1R,3R)-3-[3-(3-fluoro-4-morpholin-4-yl-phenyl)-3H-[1,2,3]triazolo[4,5-d]-pyrimidin-5-ylamino]-cyclopentanecarboxylic acid amide]	5 to 10	< 1000	< 1000	< 1000
CCOCCn1cc(-c2ccc(-n3nnc4cnc(N[C@@H]5CC[C@@H](O)C5)nc43)cc2)cn1 [A227, (1R,3R)-3-(3-{4-[1-(2-ethoxy-ethyl)-1H-pyrazol-4-yl]-phenyl}-3H-[1,2,3]triazolo[4,5-d]pyrimidin-5-ylamino)-cyclopentanol]	1 to 5	< 1000	< 1000	< 1000
